Source: patent EP0863769B1 (priority 1996, dated 1998)

Legend:
A/NIB/44/90 M = type: binding, Influenza Viren; conditions: read-out: Affinität der Bindung an Virus, Kaff
A/NIB/47/89 M = type: binding, Influenza Viren; conditions: read-out: Affinität der Bindung an Virus, Kaff
A/NIB/50/89 M = type: binding, Influenza Viren; conditions: read-out: Affinität der Bindung an Virus, Kaff
A/England/157/83 M = type: binding, Influenza Viren; conditions: read-out: Affinität der Bindung an Virus, Kaff
A/NIB/23/89 M = type: binding, Influenza Viren; conditions: read-out: Affinität der Bindung an Virus, Kaff
A/NIB/12/89 M = type: binding, Influenza Viren; conditions: read-out: Affinität der Bindung an Virus, Kaff
B/NIB/48/90 M = type: binding, Influenza Viren; conditions: read-out: Affinität der Bindung an Virus, Kaff
A/NIB/3/90 M = type: binding, Influenza Viren; conditions: read-out: Affinität der Bindung an Virus, Kaff
B/NIB/15/89 M = type: binding, Influenza Viren; conditions: read-out: Affinität der Bindung an Virus, Kaff
[1] = test system: menschlicher Influenza Viren der Typen A und B; type: binding
B/England/222/82 M = type: binding, Influenza Viren; conditions: read-out: Affinität der Bindung an Virus, Kaff

In the case of “Poly-N-(2-Hydroxyethyl)-acrylamid mit 20% mol. 6SLN [6SLN-PAA]”, the Kd (A/NIB/44/90 M) is reported as 10 nM, the Kd (A/NIB/47/89 M) is reported as 10 nM and the Kd (A/NIB/50/89 M) is reported as 20 nM. It also gave a Kd (A/England/157/83 M) of 30 nM, a Kd (A/NIB/23/89 M) of 20 nM and a Kd (A/NIB/12/89 M) of 100 nM. The Kd (B/NIB/48/90 M) was 40 nM, the Kd (A/NIB/3/90 M) was 10 nM and the Kd (B/NIB/15/89 M) was 20 nM. The “Inhibition der viralen Zelladhäsion” value [1] was “hervoragender Inhibitor aller authentischer Influenza Stämme” and the Kd (B/England/222/82 M) was 40 nM.
